Results published in patent publication EP0584797A2, “Novel cephalosporin compounds and processes for the preparation thereof” (LUCKY LTD., priority 1992, dated 1994).
In brackets after ≈: the same amount, converted by molar mass.

Experiments:
Assay in all cases: minimal inhibitory concentration, two-fold agar dilution
Format in all cases: cell-based
[1] = tested on: Acinetobacter calcoaceticus ATCC 15437; settings: ATCC15437, Muller-Hinton agar, 37°C, 20 hours, read-out: MIC values against the standard strains
In short: (§1)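 Compounds were serially diluted two-fold into Mueller-Hinton agar, and each plate was spot-inoculated with the test strain at 10⁷ CFU per ml. Plates were incubated at 37°C for 20 hours before MIC values were read.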

[2] = tested on: Salmonella typhimurium ATCC 14028; settings: Salmonella enterica; Muller-Hinton agar; 37°C; 20 hours; read-out: MIC values against the standard strains
In short: as §1

[3] = tested on: Enterobacter aerogenes ATCC 29751; settings: Klebsiella aerogenes, ATCC29751; Muller-Hinton agar; 37°C; 20 hours; read-out: MIC values against the standard strains
In short: as §1

[4] = tested on: Staphylococcus aureus ATCC 6538p; settings: ATCC6538P, Muller-Hinton agar, 37°C, 20 hours, read-out: MIC values against the standard strains
In short: as §1

[5] = tested on: Morganella morganii ATCC 8076h; settings: ATCC8076H, Muller-Hinton agar, 37°C, 20 hours, read-out: MIC values against the standard strains
In short: as §1

[6] = tested on: Klebsiella pneumoniae ATCC 10031; settings: ATCC10031, Muller-Hinton agar, 37°C, 20 hours, read-out: MIC values against the standard strains
In short: as §1

[7] = tested on: Escherichia coli ATCC 10536; settings: ATCC10536, Muller-Hinton agar, 37°C, 20 hours, read-out: MIC values against the standard strains
In short: as §1

[8] = tested on: Enterobacter cloacae ATCC 27508; settings: ATCC27508, Muller-Hinton agar, 37°C, 20 hours, read-out: MIC values against the standard strains
In short: as §1

[9] = tested on: Providencia rettgeri ATCC 9250; settings: ATCC9250, Muller-Hinton agar, 37°C, 20 hours, read-out: MIC values against the standard strains
In short: as §1

[10] = tested on: Streptococcus faecalis ATCC 29212; settings: Enterococcus faecalis, ATCC29212; Muller-Hinton agar; 37°C; 20 hours; read-out: MIC values against the standard strains
In short: as §1

[11] = tested on: Shigella sonnei ATCC 11060; settings: ATCC11060, Muller-Hinton agar, 37°C, 20 hours, read-out: MIC values against the standard strains
In short: as §1

[12] = tested on: Serratia marcescens ATCC 27117; settings: ATCC27117, Muller-Hinton agar, 37°C, 20 hours, read-out: MIC values against the standard strains
In short: as §1

[13] = tested on: Shigella flexneri ATCC 11836; settings: ATCC11836, Muller-Hinton agar, 37°C, 20 hours, read-out: MIC values against the standard strains
In short: as §1

[14] = tested on: Staphylococcus aureus ATCC 10537; settings: ATCC10537, Muller-Hinton agar, 37°C, 20 hours, read-out: MIC values against the standard strains
In short: as §1

[15] = tested on: Bacillus cereus ATCC 11778; settings: ATCC11778, Muller-Hinton agar, 37°C, 20 hours, read-out: MIC values against the standard strains
In short: as §1

[16] = tested on: Proteus mirabilis ATCC 25933; settings: ATCC25933, Muller-Hinton agar, 37°C, 20 hours, read-out: MIC values against the standard strains
In short: as §1

[17] = tested on: Escherichia coli ATCC 25922; settings: ATCC25922, Muller-Hinton agar, 37°C, 20 hours, read-out: MIC values against the standard strains
In short: as §1

[18] = tested on: Pseudomonas aeruginosa ATCC 27853; settings: ATCC27853, Muller-Hinton agar, 37°C, 20 hours, read-out: MIC values against the standard strains
In short: as §1

[19] = tested on: Bacillus megaterium ATCC 9885; settings: Priestia megaterium, ATCC9885; Muller-Hinton agar; 37°C; 20 hours; read-out: MIC values against the standard strains
In short: as §1

[20] = tested on: Citrobacter freundii ATCC 8090; settings: ATCC8090, Muller-Hinton agar, 37°C, 20 hours, read-out: MIC values against the standard strains
In short: as §1

[21] = tested on: Proteus vulgaris ATCC 6059; settings: ATCC6059, Muller-Hinton agar, 37°C, 20 hours, read-out: MIC values against the standard strains
In short: as §1

[22] = tested on: Staphylococcus epidermidis ATCC 12228; settings: ATCC12228, Muller-Hinton agar, 37°C, 20 hours, read-out: MIC values against the standard strains
In short: as §1

[23] = tested on: Pseudomonas aeruginosa ATCC 25619; settings: ATCC25619, Muller-Hinton agar, 37°C, 20 hours, read-out: MIC values against the standard strains
In short: as §1

[24] = tested on: Pseudomonas aeruginosa ATCC 10145; settings: ATCC10145, Muller-Hinton agar, 37°C, 20 hours, read-out: MIC values against the standard strains
In short: as §1

[25] = tested on: Micrococcus luteus ATCC 9341; settings: ATCC9341, Muller-Hinton agar, 37°C, 20 hours, read-out: MIC values against the standard strains
In short: as §1

[26] = tested on: Acinetobacter calcoaceticus ATCC 15473; settings: ATCC15473, Muller-Hinton agar, 37°C, 20 hours, read-out: MIC values against the standard strains
In short: as §1

Row | SMILES | MIC [2] [µg/mL] | MIC [3] [µg/mL] | MIC [4] [µg/mL] | MIC [5] [µg/mL] | MIC [6] [µg/mL] | MIC [7] [µg/mL] | MIC [8] [µg/mL] | MIC [9] [µg/mL] | MIC [10] [µg/mL] | MIC [11] [µg/mL] | MIC [12] [µg/mL] | MIC [13] [µg/mL] | MIC [14] [µg/mL] | MIC [15] [µg/mL] | MIC [16] [µg/mL] | MIC [17] [µg/mL] | MIC [18] [µg/mL] | MIC [19] [µg/mL] | MIC [20] [µg/mL] | MIC [21] [µg/mL] | other results
1 | CCO/N=C(\C(=O)N[C@@H]1C(=O)N2C(C(=O)[O-])=C(CSc3nc(N)c(N)c(N)[n+]3CC)CS[C@H]12)c1nsc(N)n1 [Example 15, 7-[(Z)-2-(5-amino-1,2,4-thiadiazol-3-yl)-2-(ethoxyimino)acetamido]-3-(4,5,6-triamino-1-ethylpyrimidinium-2-yl)thiomethyl-3-cephem-4-carboxylate] | 0.5 (≈ 0.839 µM) | 0.063 (≈ 0.106 µM) | 0.5 (≈ 0.839 µM) | ≤ 0.008 | 0.016 (≈ 0.0269 µM) | 0.063 (≈ 0.106 µM) | 0.031 (≈ 0.052 µM) | ≤ 0.008 | 32 (≈ 53.7 µM) | 0.25 (≈ 0.42 µM) | 0.5 (≈ 0.839 µM) | 0.25 (≈ 0.42 µM) | 0.25 (≈ 0.42 µM) | 32 (≈ 53.7 µM) | 1 (≈ 1.68 µM) | 0.063 (≈ 0.106 µM) | 2 (≈ 3.36 µM) | 0.13 (≈ 0.218 µM) | 0.5 (≈ 0.839 µM) | 1 (≈ 1.68 µM) | MIC [1]: 4 µg/mL (≈ 6.71 µM); MIC [22]: 0.25 µg/mL (≈ 0.42 µM); MIC [23]: 1 µg/mL (≈ 1.68 µM); MIC [24]: 8 µg/mL (≈ 13.4 µM); MIC [25]: 0.063 µg/mL (≈ 0.106 µM)
2 | CCO/N=C(\C(=O)N[C@@H]1C(=O)N2C(C(=O)[O-])=C(CSc3nc(N)c(N)c(N)[n+]3C)CS[C@H]12)c1nsc(N)n1 [Example 5] | 0.25 (≈ 0.43 µM) | 0.016 (≈ 0.0275 µM) | 0.5 (≈ 0.86 µM) | ≤ 0.008 | 0.016 (≈ 0.0275 µM) | 0.063 (≈ 0.108 µM) | 0.13 (≈ 0.223 µM) | ≤ 0.008 | 32 (≈ 55 µM) | 0.25 (≈ 0.43 µM) | 0.25 (≈ 0.43 µM) | 0.031 (≈ 0.0533 µM) | 0.25 (≈ 0.43 µM) | 16 (≈ 27.5 µM) | 0.5 (≈ 0.86 µM) | 0.063 (≈ 0.108 µM) | 2 (≈ 3.44 µM) | 0.063 (≈ 0.108 µM) | 0.13 (≈ 0.223 µM) | 0.5 (≈ 0.86 µM) | MIC [1]: 2 µg/mL (≈ 3.44 µM); MIC [22]: 0.25 µg/mL (≈ 0.43 µM); MIC [23]: 0.5 µg/mL (≈ 0.86 µM); MIC [24]: 4 µg/mL (≈ 6.88 µM); MIC [25]: 0.031 µg/mL (≈ 0.0533 µM)
3 | CCO/N=C(\C(=O)N[C@@H]1C(=O)N2C(C(=O)[O-])=C(CSc3nc(N)cc(NC)[n+]3C)CS[C@H]12)c1csc(N)n1 [Example 36, 7-[(Z)-2-(2-aminothiazol-4-yl)-2-(ethoxyimino)acetamido]-3-(4-amino-6-methylamino-1-methylpyrimidinium-2-yl)thiomethyl-3-cephem-4-carboxylate] | 0.13 (≈ 0.224 µM) | 0.13 (≈ 0.224 µM) | 0.25 (≈ 0.431 µM) | 0.016 (≈ 0.0276 µM) | ≤ 0.008 | 0.031 (≈ 0.0535 µM) | ≤ 0.008 | ≤ 0.008 | 32 (≈ 55.2 µM) | 0.063 (≈ 0.109 µM) | 0.13 (≈ 0.224 µM) | ≤ 0.008 | 0.13 (≈ 0.224 µM) | 32 (≈ 55.2 µM) | 0.25 (≈ 0.431 µM) | 0.063 (≈ 0.109 µM) | 4 (≈ 6.9 µM) | 0.063 (≈ 0.109 µM) | 0.016 (≈ 0.0276 µM) | 0.25 (≈ 0.431 µM) | MIC [22]: 0.031 µg/mL (≈ 0.0535 µM); MIC [23]: 0.5 µg/mL (≈ 0.863 µM); MIC [24]: 8 µg/mL (≈ 13.8 µM); MIC [26]: 4 µg/mL (≈ 6.9 µM); MIC [25]: ≤ 0.008 µg/mL
4 | C[n+]1cc(-c2ccccc2)c(N)nc1SCC1=C(C(=O)[O-])N2C(=O)[C@@H](NC(=O)/C(=N\OC(C)(C)C(=O)O)c3csc(N)n3)[C@H]2SC1 [Example 21, 7-[(Z)-2-(2-aminothiazol-4-yl)-2-(carboxyprop-2-oxyimino)acetamido]-3-(4-amino-5-phenyl-1-methylpyrimidinium-2-yl)thiomethyl-3-cephem-4-carboxylate] | 0.5 (≈ 0.73 µM) | 2 (≈ 2.92 µM) | 4 (≈ 5.84 µM) | ≤ 0.008 | 0.031 (≈ 0.0453 µM) | 0.13 (≈ 0.19 µM) | 0.016 (≈ 0.0234 µM) | ≤ 0.008 | > 128 | 0.13 (≈ 0.19 µM) | 0.5 (≈ 0.73 µM) | 0.063 (≈ 0.092 µM) | 1 (≈ 1.46 µM) | 128 (≈ 187 µM) | 0.25 (≈ 0.365 µM) | 0.13 (≈ 0.19 µM) | 8 (≈ 11.7 µM) | 0.13 (≈ 0.19 µM) | 0.13 (≈ 0.19 µM) | 0.25 (≈ 0.365 µM) | MIC [22]: 2 µg/mL (≈ 2.92 µM); MIC [23]: 2 µg/mL (≈ 2.92 µM); MIC [24]: 16 µg/mL (≈ 23.4 µM); MIC [26]: 32 µg/mL (≈ 46.7 µM); MIC [25]: 0.5 µg/mL (≈ 0.73 µM)
5 | CNc1cc(N)nc(SCC2=C(C(=O)[O-])N3C(=O)[C@@H](NC(=O)/C(=N\OC(C)(C)C(=O)O)c4csc(N)n4)[C@H]3SC2)[n+]1C [Example 35, 7-[(Z)-2-(2-aminothiazol-4-yl)-2-(carboxyprop-2-oxyimino)acetamido]-3-(4-amino-6-methylamino-1-methylpyrimidinium-2-yl)thiomethyl-3-cephem-4-carboxylate] | 0.13 (≈ 0.204 µM) | 1 (≈ 1.57 µM) | 4 (≈ 6.27 µM) | ≤ 0.008 | 0.063 (≈ 0.0988 µM) | 0.063 (≈ 0.0988 µM) | ≤ 0.008 | ≤ 0.008 | > 128 | 0.063 (≈ 0.0988 µM) | 0.13 (≈ 0.204 µM) | 0.031 (≈ 0.0486 µM) | 2 (≈ 3.14 µM) | 128 (≈ 201 µM) | 0.031 (≈ 0.0486 µM) | 0.063 (≈ 0.0988 µM) | 2 (≈ 3.14 µM) | 0.5 (≈ 0.784 µM) | 0.063 (≈ 0.0988 µM) | 0.063 (≈ 0.0988 µM) | MIC [22]: 2 µg/mL (≈ 3.14 µM); MIC [23]: 2 µg/mL (≈ 3.14 µM); MIC [24]: 2 µg/mL (≈ 3.14 µM); MIC [26]: 8 µg/mL (≈ 12.5 µM); MIC [25]: 0.25 µg/mL (≈ 0.392 µM)
6 | CCO/N=C(\C(=O)N[C@@H]1C(=O)N2C(C(=O)[O-])=C(CSc3nc(N)cc(OCC(=O)O)[n+]3C)CS[C@H]12)c1csc(N)n1 [Example 19, 7-[(Z)-2-(2-aminothiazol-4-yl)-2-(ethoxyimino)acetamido]-3-(4-amino-6-carboxymethoxy-1-methylpyrimidinium-2-yl)thiomethyl-3-cephem-4-carboxylate] | 0.25 (≈ 0.4 µM) | 1 (≈ 1.6 µM) | 4 (≈ 6.4 µM) | ≤ 0.008 | 0.031 (≈ 0.0496 µM) | 0.063 (≈ 0.101 µM) | ≤ 0.008 | ≤ 0.008 | 64 (≈ 102 µM) | 0.063 (≈ 0.101 µM) | 0.25 (≈ 0.4 µM) | 0.031 (≈ 0.0496 µM) | 2 (≈ 3.2 µM) | 128 (≈ 205 µM) | 0.063 (≈ 0.101 µM) | 0.063 (≈ 0.101 µM) | 16 (≈ 25.6 µM) | 0.25 (≈ 0.4 µM) | 0.063 (≈ 0.101 µM) | 0.063 (≈ 0.101 µM) | MIC [22]: 2 µg/mL (≈ 3.2 µM); MIC [23]: 8 µg/mL (≈ 12.8 µM); MIC [24]: 32 µg/mL (≈ 51.2 µM); MIC [26]: 16 µg/mL (≈ 25.6 µM); MIC [25]: 0.13 µg/mL (≈ 0.208 µM)
